PubChem BioAssay AID1845194 (Molecular Pharmacology Branch, DTP, NCI, 2023)
pIC50: −log10 of the molar value.

Tested on: 287954-098-R-J1 tumor spheroid viability
Test: Anticancer human tumor 287954-098-R-J1 patient-derived Ewing sarcoma cell line growth inhibition
Conditions: spheroids with HUVEC and MSC; for pIC50: curve of first compound; for viability, T/C: stronger effect = lower value
Outline: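 Complex spheroids of malignant cells with endothelial cells and mesenchymal stem cells; agents alone or combined, from near clinical Cmax (or 10 microM if unknown) down in half-log steps, 0.25% DMSO final.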
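Further: spheroids exposed to compound for 7 days before viability readout.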
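Wherever viability, T/C is given: luminescent signal taken as surrogate of viable cell content; 100% = DMSO vehicle control viability and lower means growth inhibition.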

`Cc1cc(C)c(CNC(=O)c2cc(-c3ccc(CN4CCOCC4)cc3)cc3c2cnn3C2CCCC2)c(=O)[nH]1` + COc1cc2c(cc1O)CCNC21CSC2c3c(OC(C)=O)c(C)c4c(c3C(COC1=O)N1C(O)C3Cc5cc(C)c(OC)c(O)c5C(C21)N3C)OCO4 gave a pIC50 (second compound 30 pM) of less than 5.00, a pIC50 (second compound 94.9 pM) of less than 5.00 and a pIC50 (second compound 0.0003 µM) of less than 5.00. It also gave a pIC50 (second compound 0.000949 µM) greater than 7.50, a pIC50 (second compound 0.003 µM) greater than 7.50 and a viability, T/C (second compound 30 pM, first compound 0.0316 µM) of 106%. It also gave a viability, T/C (second compound 30 pM, first compound 0.1 µM) of 108%, a viability, T/C (second compound 30 pM, first compound 0.316 µM) of 106% and a viability, T/C (second compound 30 pM, first compound 1 µM) of 107%. For the same compound, the viability, T/C (second compound 30 pM, first compound 3.16 µM) was 117%, the viability, T/C (second compound 30 pM, first compound 10 µM) was 116% and the viability, T/C (second compound 94.9 pM, first compound 0.0316 µM) was 106%. The viability, T/C (second compound 94.9 pM, first compound 0.1 µM) was 105%, the viability, T/C (second compound 94.9 pM, first compound 0.316 µM) was 105% and the viability, T/C (second compound 94.9 pM, first compound 1 µM) was 109%. The viability, T/C (second compound 94.9 pM, first compound 3.16 µM) was 108%, the viability, T/C (second compound 94.9 pM, first compound 10 µM) was 117% and the viability, T/C (second compound 0.0003 µM, first compound 0.0316 µM) was 96.7%. The viability, T/C (second compound 0.0003 µM, first compound 0.1 µM) was 109%, the viability, T/C (second compound 0.0003 µM, first compound 0.316 µM) was 108% and the viability, T/C (second compound 0.0003 µM, first compound 1 µM) was 113%. The viability, T/C (second compound 0.0003 µM, first compound 3.16 µM) was 103%, the viability, T/C (second compound 0.0003 µM, first compound 10 µM) was 102% and the viability, T/C (second compound 0.000949 µM, first compound 0.0316 µM) was 0.27%. It also gave a viability, T/C (second compound 0.000949 µM, first compound 0.1 µM) of 0.28%, a viability, T/C (second compound 0.000949 µM, first compound 0.316 µM) of 0.23% and a viability, T/C (second compound 0.000949 µM, first compound 1 µM) of 0.2%. For the same compound, the viability, T/C (second compound 0.000949 µM, first compound 3.16 µM) was 0.18%, the viability, T/C (second compound 0.000949 µM, first compound 10 µM) was 0.25% and the viability, T/C (second compound 0.003 µM, first compound 0.0316 µM) was 0.2%. It also gave a viability, T/C (second compound 0.003 µM, first compound 0.1 µM) of 0.23%, a viability, T/C (second compound 0.003 µM, first compound 0.316 µM) of 0.15% and a viability, T/C (second compound 0.003 µM, first compound 1 µM) of 0.12%. For the same compound, the viability, T/C (second compound 0.003 µM, first compound 3.16 µM) was 0.12% and the viability, T/C (second compound 0.003 µM, first compound 10 µM) was 0.22%.
